Measured values as given in ChEMBL document CHEMBL1131880, “Synthesis and in vitro cytotoxicity of hexacyclic camptothecin analogues” (Bioorg Med Chem Lett, 1999).

Assays:
Format in all cases: functional, cell-based
[1] = tested on: HEC-1B cell line; test: In vitro cytotoxicity against human tumor cell line HEC-1-B
[2] = tested on: Caov-3 cell line; test: In vitro cytotoxicity against human tumor cell line CAOV-3
[3] = tested on: A549; test: In vitro cytotoxicity against human tumor cell line A549
[4] = tested on: KATO III stomach cancer cell line; test: In vitro cytotoxicity against human tumor cell line KATO-III
[5] = tested on: DLD-1; test: In vitro cytotoxicity against human tumor cell line DLD-1

Row | Structure (SMILES) | IC50 [1] [µM] | IC50 [2] [µM] | IC50 [3] [nM] | IC50 [4] [nM] | IC50 [5] [nM]
1 | CCCCNCCc1c2c(nc3cc4c(cc13)OCCO4)-c1cc3c(c(=O)n1C2)COC(=O)C3(O)CC (stereo not drawn) | 3.65 | 7.12 | – | – | –
2 | CCNCCc1c2c(nc3cc4c(cc13)OCO4)-c1cc3c(c(=O)n1C2)COC(=O)C3(O)CC (stereo not drawn) | 6.06 | 33 | 0.094 | 2.9 | –
3 | CCCNCCc1c2c(nc3cc4c(cc13)OCO4)-c1cc3c(c(=O)n1C2)COC(=O)C3(O)CC (stereo not drawn) | 2.11 | 63 | 0.11 | – | 26
4 | CCC1(O)C(=O)OCc2c1cc1n(c2=O)Cc2c-1nc1cc3c(cc1c2CCNC(C)C)OCCO3 (stereo not drawn) | 12.8 | 2.32 | – | – | –
5 | CCC1(O)C(=O)OCc2c1cc1n(c2=O)Cc2c-1nc1cc3c(cc1c2CCNCC(C)C)OCCO3 (stereo not drawn) | 3.65 | 7.12 | – | – | –
6 | CCCCNCCc1c2c(nc3cc4c(cc13)OCO4)-c1cc3c(c(=O)n1C2)COC(=O)C3(O)CC (stereo not drawn) | 4.68 | 62 | – | – | –
7 | CCC(C)NCCc1c2c(nc3cc4c(cc13)OCCO4)-c1cc3c(c(=O)n1C2)COC(=O)C3(O)CC (stereo not drawn) | 3.29 | 2 | – | – | –
8 | CCC(C)NCCc1c2c(nc3cc4c(cc13)OCO4)-c1cc3c(c(=O)n1C2)COC(=O)C3(O)CC (stereo not drawn) | 14.8 | 1.51 | – | – | –
9 | CCC(C)CNCCc1c2c(nc3cc4c(cc13)OCO4)-c1cc3c(c(=O)n1C2)COC(=O)C3(O)CC (stereo not drawn) | 2.71 | 6.57 | – | – | –
10 | CCCNCCc1c2c(nc3cc4c(cc13)OCCO4)-c1cc3c(c(=O)n1C2)COC(=O)C3(O)CC (stereo not drawn) | > 100 | > 100 | – | – | –
11 | CCC1(O)C(=O)OCc2c1cc1n(c2=O)Cc2c-1nc1ccccc1c2CCNC(C)C (stereo not drawn) | – | – | 0.26 | 1.6 | 7.3
12 | CCC1(O)C(=O)OCc2c1cc1n(c2=O)Cc2c-1nc1cc3c(cc1c2CCNCC(C)C)OCO3 (stereo not drawn) | 10.1 | 21.9 | – | – | –
13 | CCNCCc1c2c(nc3cc4c(cc13)OCCO4)-c1cc3c(c(=O)n1C2)COC(=O)C3(O)CC (stereo not drawn) | 0.19 | – | 0.5 | – | –
14 | CCC1(O)C(=O)OCc2c1cc1n(c2=O)Cc2c-1nc1cc3c(cc1c2CCNC(C)C)OCO3 (stereo not drawn) | 0.67 | – | – | 45 | 8.9
15 | CCN(CC)CCNCCc1c2c(nc3cc4c(cc13)OCCO4)-c1cc3c(c(=O)n1C2)COC(=O)C3(O)CC (stereo not drawn) | 12.1 | > 100 | – | – | –
16 | CCC(C)CNCCc1c2c(nc3cc4c(cc13)OCCO4)-c1cc3c(c(=O)n1C2)COC(=O)C3(O)CC (stereo not drawn) | 3.44 | 3.5 | – | – | –
17 | CC[C@@]1(O)C(=O)OCc2c1cc1n(c2=O)Cc2cc3ccccc3nc2-1 [CAMPTOTHECIN] | 0.06 | 0.0029 | 0.33 | 46 | 14
